Source: patent US20210045385A1, “PYRIDAZINONE-SUBSTITUTED KETOXIMES AS HERBICIDES” (FMC Corporation, priority 2018, published 2021)

Experiments:
Assay type in all cases: in vivo
[1] = tested on: ragweed (common ragweed, Ambrosia artemisiifolia); test: Test C postemergence, visual plant response rating
Method in brief: (§1)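 Compounds in a non-phytotoxic solvent with surfactant were applied as a directed soil spray preemergence or to 2–10 cm, one- to two-leaf plants postemergence, in loam–sand soil. After about 10 d in a greenhouse, injury was visually rated against untreated controls on a 0–100 scale (100 = complete control).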

[2] = tested on: wheat (Triticum aestivum); test: Test C postemergence, visual plant response rating
Method in brief: as §1

[3] = tested on: barnyardgrass (Echinochloa crus-galli); test: Test C postemergence, visual plant response rating
Method in brief: as §1

[4] = tested on: kochia (Bassia scoparia); test: Test C postemergence, visual plant response rating
Method in brief: as §1

[5] = tested on: corn (Zea mays); test: Test C postemergence, visual plant response rating
Method in brief: as §1

[6] = tested on: galium (catchweed bedstraw, Galium aparine); test: Test C postemergence, visual plant response rating
Method in brief: as §1

[7] = tested on: pigweed (Amaranthus retroflexus); test: Test C postemergence, visual plant response rating
Method in brief: as §1

[8] = tested on: blackgrass (Alopecurus myosuroides); test: Test C postemergence, visual plant response rating
Method in brief: as §1

[9] = tested on: Italian ryegrass (Lolium mutiflorum); test: Test C postemergence, visual plant response rating
Method in brief: as §1

[10] = tested on: foxtail, giant (giant foxtail, Setaria faberi); test: Test C postemergence, visual plant response rating
Method in brief: as §1

[11] = tested on: barnyardgrass (Echinochloa crus-galli); test: Test C preemergence, visual plant response rating; settings: Test C, 0 is no effect, 100 is complete control
Method in brief: as §1

[12] = tested on: kochia (Bassia scoparia); test: Test C preemergence, visual plant response rating; settings: Test C, 0 is no effect, 100 is complete control
Method in brief: as §1

[13] = tested on: pigweed (Amaranthus retroflexus); test: Test C preemergence, visual plant response rating; settings: Test C, 0 is no effect, 100 is complete control
Method in brief: as §1

[14] = tested on: Italian ryegrass (Lolium mutiflorum); test: Test C preemergence, visual plant response rating; settings: Test C, 0 is no effect, 100 is complete control
Method in brief: as §1

[15] = tested on: foxtail, giant (giant foxtail, Setaria faberi); test: Test C preemergence, visual plant response rating; settings: Test C, 0 is no effect, 100 is complete control
Method in brief: as §1

[16] = tested on: duck salad (Heteranthera limosa); test: Test D flooded paddy test, visual plant response rating; settings: 250 g ai/ha, scale 0 to 100 (0 no effect, 100 complete control), 13 to 15 d
Method in brief: (§2)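 Plants were grown to the 2-leaf stage, pots flooded to 3 cm above soil, and compound applied directly into the paddy water, with the depth held throughout. After 13 to 15 d in a greenhouse, response was rated visually against untreated controls on a 0–100 scale (0 no effect, 100 complete control).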

[17] = tested on: sedge umbrella (small-flower umbrella sedge, Cyperus difformis); test: as above; settings: 250 g ai/ha, scale 0 to 100 (0 no effect, 100 complete control), 13 to 15 d
Method in brief: as §2

[18] = tested on: barnyardgrass (Echinochloa crus-galli); test: as above; settings: 250 g ai/ha, scale 0 to 100 (0 no effect, 100 complete control), 13 to 15 d
Method in brief: as §2

[19] = tested on: rice (Oryza sativa); test: as above; settings: 250 g ai/ha, scale 0 to 100 (0 no effect, 100 complete control), 13 to 15 d
Method in brief: as §2

[20] = Test C, postemergence, 125 g ai/ha

With `CCO/N=C(/c1c(O)c(Cl)nn(C)c1=O)c1cc(Br)cc2ccccc12` [Compound 236] the “Ragweed plant response rating (0 to 100 scale)” value (“Ragweed plant response rating” below) ([1]; Postemergence, 31 g ai/ha) was 100, the “Ragweed plant response rating” value [1, 20] was 100 and the “Wheat plant response rating (0 to 100 scale)” value (“Wheat plant response rating” for short) ([2]; Postemergence, 31 g ai/ha) was 0. For the same compound, the “Wheat plant response rating” value [2, 20] was 0, the “Barnyardgrass plant response rating (0 to 100 scale)” value (“Barnyardgrass plant response rating” below) ([3]; Postemergence, 31 g ai/ha) was 70 and the “Barnyardgrass plant response rating” value [3, 20] was 90. The “Kochia plant response rating (0 to 100 scale)” value (shortened to “Kochia plant response rating”) ([4]; Postemergence, 31 g ai/ha) was 30, the “Kochia plant response rating” value [4, 20] was 50 and the “Corn plant response rating (0 to 100 scale)” value (from here on “Corn plant response rating”) ([5]; Postemergence, 31 g ai/ha) was 20. For the same compound, the “Corn plant response rating” value [5, 20] was 30, the “Galium plant response rating (0 to 100 scale)” value (shortened to “Galium plant response rating”) ([6]; Postemergence, 31 g ai/ha) was 90 and the “Galium plant response rating” value [6, 20] was 100. The “Pigweed plant response rating (0 to 100 scale)” value (from here on “Pigweed plant response rating”) ([7]; Postemergence, 31 g ai/ha) was 20, the “Pigweed plant response rating” value [7, 20] was 60 and the “Blackgrass plant response rating (0 to 100 scale)” value (from here on “Blackgrass plant response rating”) ([8]; Postemergence, 31 g ai/ha) was 0. The “Blackgrass plant response rating” value [8, 20] was 30, the “Ryegrass, Italian plant response rating (0 to 100 scale)” value (“Ryegrass, Italian plant response rating” for short) ([9]; Postemergence, 31 g ai/ha) was 0 and the “Ryegrass, Italian plant response rating” value [9, 20] was 20. For the same compound, the “Foxtail, Giant plant response rating (0 to 100 scale)” value (“Foxtail, Giant plant response rating” below) ([10]; Postemergence, 31 g ai/ha) was 60, the “Foxtail, Giant plant response rating” value [10, 20] was 90 and the “Barnyardgrass plant response rating” value ([11]; 31 g ai/ha) was 90. The “Barnyardgrass plant response rating” value ([11]; 125 g ai/ha) was 90, the “Kochia plant response rating” value ([12]; 31 g ai/ha) was 0 and the “Kochia plant response rating” value ([12]; 125 g ai/ha) was 40. For the same compound, the “Pigweed plant response rating” value ([13]; 31 g ai/ha) was 10, the “Pigweed plant response rating” value ([13]; 125 g ai/ha) was 70 and the “Ryegrass, Italian plant response rating” value ([14]; 31 g ai/ha) was 0. For the same compound, the “Ryegrass, Italian plant response rating” value ([14]; 125 g ai/ha) was 20, the “Foxtail, Giant plant response rating” value ([15]; 31 g ai/ha) was 80 and the “Foxtail, Giant plant response rating” value ([15]; 125 g ai/ha) was 100. The “Plant response rating, Ducksalad (Flood)” value [16] was 70, the “Plant response rating, Sedge, Umbrella (Flood)” value [17] was 85 and the “Plant response rating, Barnyardgrass (Flood)” value [18] was 35. For the same compound, the “Plant response rating, Rice (Flood)” value [19] was 0.

With `CO/N=C(\c1c(O)c(Cl)nn(C)c1=O)c1cc(Br)cc2ccccc12` [Compound 250] the “Ragweed plant response rating” value ([1]; Postemergence, 31 g ai/ha) was 100, the “Ragweed plant response rating” value [1, 20] was 100 and the “Wheat plant response rating” value ([2]; Postemergence, 31 g ai/ha) was 0. The “Wheat plant response rating” value [2, 20] was 0, the “Barnyardgrass plant response rating” value ([3]; Postemergence, 31 g ai/ha) was 50 and the “Barnyardgrass plant response rating” value [3, 20] was 80. For the same compound, the “Kochia plant response rating” value ([4]; Postemergence, 31 g ai/ha) was 40, the “Kochia plant response rating” value [4, 20] was 60 and the “Corn plant response rating” value ([5]; Postemergence, 31 g ai/ha) was 0. The “Corn plant response rating” value [5, 20] was 10, the “Galium plant response rating” value ([6]; Postemergence, 31 g ai/ha) was 90 and the “Galium plant response rating” value [6, 20] was 100. For the same compound, the “Pigweed plant response rating” value ([7]; Postemergence, 31 g ai/ha) was 50, the “Pigweed plant response rating” value [7, 20] was 70 and the “Blackgrass plant response rating” value ([8]; Postemergence, 31 g ai/ha) was 10. For the same compound, the “Blackgrass plant response rating” value [8, 20] was 30, the “Ryegrass, Italian plant response rating” value ([9]; Postemergence, 31 g ai/ha) was 0 and the “Ryegrass, Italian plant response rating” value [9, 20] was 0. The “Foxtail, Giant plant response rating” value ([10]; Postemergence, 31 g ai/ha) was 20, the “Foxtail, Giant plant response rating” value [10, 20] was 80 and the “Barnyardgrass plant response rating” value ([11]; 31 g ai/ha) was 70. The “Barnyardgrass plant response rating” value ([11]; 125 g ai/ha) was 80, the “Kochia plant response rating” value ([12]; 31 g ai/ha) was 0 and the “Kochia plant response rating” value ([12]; 125 g ai/ha) was 80. The “Pigweed plant response rating” value ([13]; 31 g ai/ha) was 10, the “Pigweed plant response rating” value ([13]; 125 g ai/ha) was 70 and the “Ryegrass, Italian plant response rating” value ([14]; 31 g ai/ha) was 0. The “Ryegrass, Italian plant response rating” value ([14]; 125 g ai/ha) was 0, the “Foxtail, Giant plant response rating” value ([15]; 31 g ai/ha) was 40 and the “Foxtail, Giant plant response rating” value ([15]; 125 g ai/ha) was 80. For the same compound, the “Plant response rating, Ducksalad (Flood)” value [16] was 85, the “Plant response rating, Sedge, Umbrella (Flood)” value [17] was 70 and the “Plant response rating, Barnyardgrass (Flood)” value [18] was 25. The “Plant response rating, Rice (Flood)” value [19] was 10.
